We go through 3 compounds from ChEMBL document CHEMBL1153565, “Physicochemical properties and membrane interactions of anti-apoptotic derivatives 2-(4-fluorophenyl)-3-(pyridin-4-yl)imidazo[1,2-a]pyridine depending on the hydroxyalkylamino side chain length and conformation: an NMR and ESR study” (Eur J Med Chem, 2009).

The nature of data set [1]: Solubility of compound in water. In kind it is physicochemical. The note with it: buffer.
The nature of data set [2]: Partition coefficient, log P of the compound. It is filed as physicochemical. The conditions noted are these: octanol/water.
The subject of data set [3] is THP-1. Briefly: Membrane penetration of compound in human THP1 cells assessed as membrane binding. In kind it is ADME, cell-based.

One may read the logP as a log measure of how a compound divides between an organic and an aqueous phase. A lower logP goes with lower lipophilicity. For the compound `OCCCCNc1ccc2nc(-c3ccc(F)cc3)c(-c3ccncc3)n2c1`, the solubility entry in data set [1] is recorded as “Insoluble”. The logP in data set [2] was found to be 2.3. The Activity result in data set [3] is “Not Active”.
The matching figures for `OCCNc1ccc2nc(-c3ccc(F)cc3)c(-c3ccncc3)n2c1`: “Insoluble”, 1.75 and “Not Active”.
On to `OCCCCCCNc1ccc2nc(-c3ccc(F)cc3)c(-c3ccncc3)n2c1`, for which the solubility result in data set [1] was “Soluble”. The compound also returned a logP in data set [2] of 3.2. In addition, the outcome in data set [3] was Active.
